Results reported in PubChem BioAssay (NCI).
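A five-concentration, 48-hour dose response in 96-well plates underlies each endpoint, interpolated linearly between surrounding concentrations. The concentration for full growth arrest is given as TGI.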

Tests used:
Test in all cases: NCI-60 cell line screen, 48 h
786-0 renal = system: 786-0 renal
A498 renal = system: A498 renal
A549 NSCLC = system: A549 NSCLC
ACHN renal = system: ACHN renal
BT-549 breast = system: BT-549 breast
CAKI-1 renal = system: CAKI-1 renal
CCRF-CEM leukemia = system: CCRF-CEM leukemia
COLO 205 colon = system: COLO 205 colon
DU-145 prostate = system: DU-145 prostate
EKVX NSCLC = system: EKVX NSCLC
HCC-2998 colon = system: HCC-2998 colon
HCT-116 colon = system: HCT-116 colon
HCT-15 colon = system: HCT-15 colon
HL-60(TB) leukemia = system: HL-60(TB) leukemia
HOP-62 NSCLC = system: HOP-62 NSCLC
HOP-92 NSCLC = system: HOP-92 NSCLC
HS 578T breast = system: HS 578T breast
HT29 colon = system: HT29 colon
IGROV1 ovarian = system: IGROV1 ovarian
K-562 leukemia = system: K-562 leukemia
KM12 colon = system: KM12 colon
LOX IMVI melanoma = system: LOX IMVI melanoma
M14 melanoma = system: M14 melanoma
MALME-3M melanoma = system: MALME-3M melanoma
MCF7 breast = system: MCF7 breast
MDA-MB-231 breast = system: MDA-MB-231 breast
MDA-MB-435 = system: MDA-MB-435
MDA-N = system: MDA-N
MOLT-4 leukemia = system: MOLT-4 leukemia
NCI-H226 lung = system: NCI-H226 lung
NCI-H23 lung = system: NCI-H23 lung
NCI-H460 lung = system: NCI-H460 lung
NCI-H522 lung = system: NCI-H522 lung
NCI/ADR-RES ovarian = system: NCI/ADR-RES ovarian
OVCAR-4 ovarian = system: OVCAR-4 ovarian
OVCAR-5 ovarian = system: OVCAR-5 ovarian
OVCAR-8 ovarian = system: OVCAR-8 ovarian
PC-3 prostate = system: PC-3 prostate
RPMI-8226 leukemia = system: RPMI-8226 leukemia
RXF 393 renal = system: RXF 393 renal
SF-268 CNS = system: SF-268 CNS
SF-295 CNS = system: SF-295 CNS
SK-MEL-2 melanoma = system: SK-MEL-2 melanoma
SK-MEL-28 melanoma = system: SK-MEL-28 melanoma
SK-MEL-5 melanoma = system: SK-MEL-5 melanoma
SK-OV-3 ovarian = system: SK-OV-3 ovarian
SN12C renal = system: SN12C renal
SNB-19 CNS = system: SNB-19 CNS
SR leukemia = system: SR leukemia
SW-620 colon = system: SW-620 colon
T-47D breast = system: T-47D breast
TK-10 renal = system: TK-10 renal
U251 CNS = system: U251 CNS
UACC-257 melanoma = system: UACC-257 melanoma
UACC-62 melanoma = system: UACC-62 melanoma
UO-31 renal = system: UO-31 renal
OVCAR-3 ovarian = system: OVCAR-3 ovarian
SF-539 CNS = system: SF-539 CNS
SNB-75 CNS = system: SNB-75 CNS

Compound `O=C1c2ccccc2C(=O)N1CCSCC(CO)SCCN1C(=O)c2ccccc2C1=O` (configuration not stated) has a TGI (786-0 renal) greater than 100 µM, a TGI (A498 renal) greater than 100 µM and a TGI (A549 NSCLC) greater than 100 µM. It also gave a TGI (ACHN renal) greater than 100 µM, a TGI (BT-549 breast) greater than 100 µM and a TGI (CAKI-1 renal) greater than 100 µM. It also gave a TGI (CCRF-CEM leukemia) greater than 100 µM, a TGI (COLO 205 colon) greater than 100 µM and a TGI (DU-145 prostate) greater than 100 µM. For the same compound, the TGI (EKVX NSCLC) was greater than 100 µM, the TGI (HCC-2998 colon) was greater than 100 µM and the TGI (HCT-116 colon) was greater than 100 µM. The TGI (HCT-15 colon) was greater than 100 µM, the TGI (HL-60(TB) leukemia) was 50.5 µM and the TGI (HOP-62 NSCLC) was greater than 100 µM. For the same compound, the TGI (HOP-92 NSCLC) was greater than 100 µM, the TGI (HS 578T breast) was greater than 100 µM and the TGI (HT29 colon) was greater than 100 µM. It also gave a TGI (IGROV1 ovarian) greater than 100 µM, a TGI (K-562 leukemia) greater than 100 µM and a TGI (KM12 colon) greater than 100 µM. It also gave a TGI (LOX IMVI melanoma) greater than 100 µM, a TGI (M14 melanoma) greater than 100 µM and a TGI (MALME-3M melanoma) greater than 100 µM. For the same compound, the TGI (MCF7 breast) was greater than 100 µM, the TGI (MDA-MB-231 breast) was greater than 100 µM and the TGI (MDA-MB-435) was greater than 100 µM. It also gave a TGI (MDA-N) greater than 100 µM, a TGI (MOLT-4 leukemia) greater than 100 µM and a TGI (NCI-H226 lung) greater than 100 µM. It also gave a TGI (NCI-H23 lung) greater than 100 µM, a TGI (NCI-H460 lung) greater than 100 µM and a TGI (NCI-H522 lung) greater than 100 µM. The TGI (NCI/ADR-RES ovarian) was greater than 100 µM, the TGI (OVCAR-4 ovarian) was greater than 100 µM and the TGI (OVCAR-5 ovarian) was greater than 100 µM. It also gave a TGI (OVCAR-8 ovarian) greater than 100 µM, a TGI (PC-3 prostate) greater than 100 µM and a TGI (RPMI-8226 leukemia) greater than 100 µM. For the same compound, the TGI (RXF 393 renal) was greater than 100 µM, the TGI (SF-268 CNS) was greater than 100 µM and the TGI (SF-295 CNS) was greater than 100 µM. For the same compound, the TGI (SK-MEL-2 melanoma) was greater than 100 µM, the TGI (SK-MEL-28 melanoma) was greater than 100 µM and the TGI (SK-MEL-5 melanoma) was greater than 100 µM. For the same compound, the TGI (SK-OV-3 ovarian) was greater than 100 µM, the TGI (SN12C renal) was greater than 100 µM and the TGI (SNB-19 CNS) was greater than 100 µM. It also gave a TGI (SR leukemia) greater than 100 µM, a TGI (SW-620 colon) greater than 100 µM and a TGI (T-47D breast) greater than 100 µM. It also gave a TGI (TK-10 renal) greater than 100 µM, a TGI (U251 CNS) greater than 100 µM and a TGI (UACC-257 melanoma) greater than 100 µM. It also gave a TGI (UACC-62 melanoma) greater than 100 µM and a TGI (UO-31 renal) greater than 100 µM.

In the case of `Clc1cc2nn(C3CCCCO3)nc2cc1Cl` (configuration not stated), the TGI (786-0 renal) is reported as greater than 100 µM, the TGI (A549 NSCLC) is reported as greater than 100 µM and the TGI (ACHN renal) is reported as greater than 100 µM. It also gave a TGI (BT-549 breast) greater than 100 µM, a TGI (CAKI-1 renal) greater than 100 µM and a TGI (CCRF-CEM leukemia) greater than 100 µM. For the same compound, the TGI (COLO 205 colon) was greater than 100 µM, the TGI (DU-145 prostate) was greater than 100 µM and the TGI (EKVX NSCLC) was greater than 100 µM. For the same compound, the TGI (HCC-2998 colon) was greater than 100 µM, the TGI (HCT-116 colon) was greater than 100 µM and the TGI (HCT-15 colon) was greater than 100 µM. For the same compound, the TGI (HOP-62 NSCLC) was greater than 100 µM, the TGI (HS 578T breast) was greater than 100 µM and the TGI (HT29 colon) was greater than 100 µM. The TGI (IGROV1 ovarian) was greater than 100 µM, the TGI (K-562 leukemia) was greater than 100 µM and the TGI (KM12 colon) was greater than 100 µM. The TGI (M14 melanoma) was greater than 100 µM, the TGI (MALME-3M melanoma) was greater than 100 µM and the TGI (MCF7 breast) was greater than 100 µM. The TGI (MDA-MB-231 breast) was greater than 100 µM, the TGI (MDA-MB-435) was greater than 100 µM and the TGI (MDA-N) was greater than 100 µM. It also gave a TGI (MOLT-4 leukemia) greater than 100 µM, a TGI (NCI-H226 lung) greater than 100 µM and a TGI (NCI-H23 lung) greater than 100 µM. It also gave a TGI (NCI-H460 lung) greater than 100 µM, a TGI (NCI-H522 lung) greater than 100 µM and a TGI (NCI/ADR-RES ovarian) greater than 100 µM. It also gave a TGI (OVCAR-3 ovarian) greater than 100 µM, a TGI (OVCAR-4 ovarian) greater than 100 µM and a TGI (OVCAR-5 ovarian) greater than 100 µM. The TGI (OVCAR-8 ovarian) was greater than 100 µM, the TGI (PC-3 prostate) was greater than 100 µM and the TGI (RXF 393 renal) was greater than 100 µM. For the same compound, the TGI (SF-295 CNS) was greater than 100 µM, the TGI (SF-539 CNS) was greater than 100 µM and the TGI (SK-MEL-2 melanoma) was greater than 100 µM. For the same compound, the TGI (SK-MEL-5 melanoma) was greater than 100 µM, the TGI (SK-OV-3 ovarian) was greater than 100 µM and the TGI (SN12C renal) was greater than 100 µM. For the same compound, the TGI (SNB-19 CNS) was greater than 100 µM, the TGI (SNB-75 CNS) was greater than 100 µM and the TGI (SR leukemia) was greater than 100 µM. For the same compound, the TGI (T-47D breast) was greater than 100 µM, the TGI (TK-10 renal) was greater than 100 µM and the TGI (U251 CNS) was greater than 100 µM. It also gave a TGI (UACC-257 melanoma) greater than 100 µM, a TGI (UACC-62 melanoma) greater than 100 µM and a TGI (UO-31 renal) greater than 100 µM.
